In patent US20190134153A1, “IMMUNOMODULATORY EFFECT OF INHALED KINASE INHIBITOR PEPTIDES IN LUNG” (MOERAE MATRIX, INC., priority 2017, published 2019):
Where a SMILES comes first, the peptide text is derived from it.

Tests used:
[1] = LPS challenge study in healthy smokers: safety and tolerability (adverse events)
Method: Period/sequence effects were analyzed to determine potential impact of treatment order.
First multi-day dosing in humans employed a single low dose of 2.25 mg, extrapolated from animal studies (37.5 μg/kg, based on 60 kg human).
The primary study endpoints were safety and tolerability following first repeat administration and induced sputum inflammatory biomarkers interleukin-6 (IL-6), interleukin-1β (IL-1β), interleukin-8 (IL-8) and tumor necrosis factor alpha (TNFα) following inhaled LPS (30 μg) challenge, day 5.

[2] = inhaled, even at high doses
[3] = following repeat dosing
[4] = test system: Rat bowel anastomosis; settings: vs placebo; cited from earlier work
[5] = in vitro; settings: cells (cell type not stated)
[6] = test system: Ca2+/calmodulin-dependent protein kinase II (CaMKII); settings: cited from earlier work
[7] = test system: PKA; settings: 1 μM; cited from earlier work
[8] = test system: PKC; settings: 1 μM; cited from earlier work
[9] = molecular target: CaMKIV (Homo sapiens, UniProt Q16566); settings: 1 μM; cited from earlier work
CaMKIV, sequence (Q16566 whole entry, species assumed): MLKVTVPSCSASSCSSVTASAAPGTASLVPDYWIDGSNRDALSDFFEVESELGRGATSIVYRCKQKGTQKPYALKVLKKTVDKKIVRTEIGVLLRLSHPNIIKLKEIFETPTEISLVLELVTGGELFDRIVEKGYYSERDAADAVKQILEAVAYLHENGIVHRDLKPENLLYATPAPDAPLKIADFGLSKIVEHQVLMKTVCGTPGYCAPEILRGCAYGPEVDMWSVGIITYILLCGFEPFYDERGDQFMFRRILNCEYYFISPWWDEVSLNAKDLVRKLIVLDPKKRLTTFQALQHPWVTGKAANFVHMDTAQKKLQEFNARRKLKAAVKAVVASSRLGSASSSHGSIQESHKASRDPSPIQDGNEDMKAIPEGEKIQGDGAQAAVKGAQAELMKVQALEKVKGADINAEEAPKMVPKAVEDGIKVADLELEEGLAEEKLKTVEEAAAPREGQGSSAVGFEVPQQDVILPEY

**Q.** For `CC(C)C[C@H](NC(=O)[C@H](C)NC(=O)[C@H](CCCCN)NC(=O)[C@H](C)NC(=O)[C@H](CCCNC(=N)N)NC(=O)[C@H](C)NC(=O)[C@H](CCC(N)=O)NC(=O)[C@H](CCCNC(=N)N)NC(=O)[C@H](C)NC(=O)[C@H](C)NC(=O)[C@H](C)NC(=O)[C@H](CCCNC(=N)N)NC(=O)[C@H](C)NC(=O)[C@@H](N)Cc1ccc(O)cc1)C(=O)N[C@@H](C)C(=O)N[C@@H](CCCNC(=N)N)C(=O)N[C@@H](CCC(N)=O)C(=O)N[C@@H](CC(C)C)C(=O)NCC(=O)N[C@H](C(=O)N[C@@H](C)C(=O)N[C@@H](C)C(=O)O)C(C)C` [MMI-0100] (H-YARAAARQARAKALARQLGVAA-OH), which “Any AE leading to treatment D/C, Patients %” value ([1]; N = 22) is on record?
**A.** Its value is “(0%)”.

**Q.** And the “Any AE leading to treatment D/C, Patients N” value ([1]; N = 22)?
**A.** Its value is 0.

**Q.** And the “Any TEAE, Patients %” value ([1]; N = 22)?
**A.** The value was “(40.9%)”.

**Q.** And the “Any TEAE, Patients N” value ([1]; N = 22)?
**A.** Its value is 9.

**Q.** What about the “Deaths, Patients %” value ([1]; N = 22) of the same compound?
**A.** Its value is “(0%)”.

**Q.** What about the “Deaths, Patients N” value ([1]; N = 22) of the same compound?
**A.** Its value is 0.

**Q.** What about the “Mild TEAE, Patients %” value ([1]; N = 22) of the same compound?
**A.** The value was “(27.3%)”.

**Q.** And the “Mild TEAE, Patients N” value ([1]; N = 22)?
**A.** Its value is 6.

**Q.** What about the “Moderate TEAE, Patients %” value ([1]; N = 22) of the same compound?
**A.** The value was “(18.2%)”.

**Q.** And the “Moderate TEAE, Patients N” value ([1]; N = 22)?
**A.** Its value is 4.

**Q.** What about the “Severe or life threatening TEAE, Patients %” value ([1]; N = 22) of the same compound?
**A.** Its value is “(0%)”.

**Q.** And the “Severe or life threatening TEAE, Patients N” value ([1]; N = 22)?
**A.** The value was 0.

**Q.** And the “Any serious treatment emergent adverse event, % of subjects” value ([1]; Safety Population N = 22)?
**A.** The value was “(0.5%)”.

**Q.** What about the “Any serious treatment emergent adverse event, subjects” value ([1]; Safety Population N = 22) of the same compound?
**A.** The value was 0.

**Q.** And the “Concussion (serious TEAE), % of subjects” value ([1]; Safety Population N = 22)?
**A.** The value was “(0%)”.

**Q.** What about the “Concussion (serious TEAE), subjects” value ([1]; Safety Population N = 22) of the same compound?
**A.** Its value is 0.

**Q.** And the “Injury, poisoning and procedural complications (serious TEAE), % of subjects” value ([1]; Safety Population N = 22)?
**A.** The value was “(0%)”.

**Q.** And the “Injury, poisoning and procedural complications (serious TEAE), subjects” value ([1]; Safety Population N = 22)?
**A.** Its value is 0.

**Q.** And the “Joint dislocation (serious TEAE), % of subjects” value ([1]; Safety Population N = 22)?
**A.** Its value is “(0%)”.

**Q.** And the “Joint dislocation (serious TEAE), subjects” value ([1]; Safety Population N = 22)?
**A.** The value was 0.

**Q.** And the “Number of serious treatment emergent adverse events” value ([1]; Safety Population N = 22)?
**A.** The value was 0.

**Q.** What about the safety and tolerability ([1]; first repeat administration, 2.25 mg inhaled, 5 days) of the same compound?
**A.** The safety and tolerability was “safe and well-tolerated”.

**Q.** And the MMI-0100 plasma concentrations [2]?
**A.** Its MMI-0100 plasma concentrations is “little to no detectable”.

**Q.** What about the “effect on lung function (FEV1)” value [3] of the same compound?
**A.** Its value is “no deleterious effect”.

**Q.** And the “healing (integrity of anastomosis)” value [4]?
**A.** The value was “healing (integrity of anastomosis) unaffected”.

**Q.** And the half-life [5]?
**A.** The half-life was about 77 h.

**Q.** For “autocamtide-2 related inhibitory peptide [AIP]”, which CaMKII activity ([6]; 1 μM) is on record?
**A.** The CaMKII activity was “inhibited completely”.

**Q.** And the IC50 ([6]; CaMKII)?
**A.** The IC50 was 100 nM.

**Q.** What about the PKA activity [7] of the same compound?
**A.** Its PKA activity is “not affected”.

**Q.** What about the PKC activity [8] of the same compound?
**A.** Its PKC activity is “not affected”.

**Q.** And the CaMKIV activity [9]?
**A.** The CaMKIV activity was “not affected”.
